Experimental findings from PubChem BioAssay AID1996 are described below.

Values after ≈ are worked out from the molar mass of the structure shown. Where only a bound is given, the exact number is not on record here.

The conditions of the data set: buffer; pH 7.4; 200.0 µM.
`O=C(Cc1ccc(S(=O)(=O)N2CCCC2)s1)Nc1cccc([N+](=O)[O-])c1` had a kinetic solubility of 20.7 µg/mL (≈ 52.3 µM).

In the case of `Cc1nc(-c2cccs2)sc1C(=O)O`, the kinetic solubility is greater than 33.8 µg/mL. The result for `COc1ccc(NC(=O)Nc2cccc3ccccc23)cc1OC` reads 0.4 µg/mL (≈ 1.24 µM). The result for `N=c1c2c3c(sc2ncn1N)CCCC3` reads greater than 33 µg/mL; that for `O=C1OCC2=C1C(c1ccccc1)CC(=O)N2c1cccc(F)c1` (stereo not given), 44.3 µg/mL (≈ 137 µM). The result for `O=C(NCCc1csc(-c2cccnc2)n1)c1c(F)cccc1F` reads 48.9 µg/mL (≈ 142 µM).

For the compound `Cc1ccc(NC(=O)CCOc2ccccc2)cc1`, the kinetic solubility stood at 11.7 µg/mL (≈ 45.8 µM).

Consider `Cc1ccc(Nc2nc(-c3cccnc3)cs2)cc1C`, for which the solubility (kinetic) came to 0.4 µg/mL (≈ 1.42 µM). The result for `Fc1ccc(-n2c(=S)[nH]c3cccnc32)cc1` reads greater than 36.8 µg/mL; that for `C=CCSc1nc2sc3c(c2c(=O)[nH]1)CC(C)(CC)OC3` (stereo not given), 0.5 µg/mL (≈ 1.55 µM); that for `CN(C)CCCNC(=O)c1ccccc1Oc1ccccc1`, greater than 44.8 µg/mL.

For the compound `c1nc(Nc2ccc(N3CCOCC3)cc2)c2ccsc2n1`, the kinetic solubility was greater than 46.9 µg/mL.

Take `CCC(=O)NC(=S)Nc1cccc(Cl)c1N1CCCC1`: the solubility (kinetic) amounted to 0.3 µg/mL (≈ 0.962 µM). For `Cc1cc(C(=O)Nc2ccc(Br)cc2)c2ccccc2n1` the value was 0.5 µg/mL (≈ 1.47 µM); for `CC(=O)c1ccc(NC(=O)C(C)NCc2ccc(Cl)cc2)cc1` (stereo not given), 42.9 µg/mL (≈ 130 µM). `COCCNc1nc(-c2ccccc2)nc2ccccc12.Cl` displayed a kinetic solubility greater than 47.4 µg/mL.

Take `CCOC(=O)C1(Cc2cccc(F)c2)CCN(CC(O)CO)CC1` (stereo not given): the solubility (kinetic) stood at 43.3 µg/mL (≈ 128 µM). For `Cc1ccc(N(CC(=O)NC(C)(C)C)C(=O)CCC(=O)Nc2nccs2)cc1C` the value was 12.2 µg/mL (≈ 29.3 µM); for `O=C(Nc1ccc(Cl)c(S(=O)(=O)N2CCCC2)c1)c1cc(=O)[nH]c2ccccc12`, 14.5 µg/mL (≈ 33.6 µM). For `CC1=CC=CC2=NC(=O)CC(C)(C(=O)O)N12` (stereo not given) the value was greater than 33 µg/mL; for `O=C(COC(=O)c1ccccn1)NCCc1ccc(Cl)cc1`, greater than 47.8 µg/mL. The result for `CC(C)n1c(O)c(C=NCc2ccccc2)c(=O)[nH]c1=S` reads 19.6 µg/mL (≈ 64.6 µM); that for `COc1ccccc1OCCNC(=O)C1CCN(C(C)=O)CC1`, greater than 48.1 µg/mL. In the case of `COC(=O)c1ccc(NC(=S)NCCc2ccc(OC)cc2)cc1`, the solubility (kinetic) was determined as 0.8 µg/mL (≈ 2.32 µM). The result for `CCc1c(C)nc(N)nc1N1N=C1SCCOc1ccccc1` reads greater than 49.4 µg/mL; that for `Cc1nc2cc(Cl)ccc2c(=O)n1Cc1ccncc1`, greater than 42.9 µg/mL. For `O=C(COC(=O)CN1C(=O)NC2(CCCCC2)C1=O)Nc1cc(F)ccc1F` the value was greater than 59.3 µg/mL; for `CC(CNC(=O)c1ccccc1Cl)NC(=O)c1ccccc1Cl` (stereo not given), greater than 52.7 µg/mL; for `O=C1CN(S(=O)(=O)c2cccc(Br)c2)CCN1`, greater than 47.9 µg/mL. The result for `O=C(NCc1ccco1)C(=S)N1CCCC1` reads greater than 35.7 µg/mL; that for `Cc1ccc(Cn2c(C)nc3ccc([N+](=O)[O-])cc3c2=O)cc1`, 1.5 µg/mL (≈ 4.85 µM).

Turning to `NC(=S)NNC(=O)COc1ccccc1O`, the kinetic solubility was greater than 36.2 µg/mL.

The compound `Cc1ccc(C(=O)O/N=C(\N)c2ccccn2)cc1Cl` yielded a solubility (kinetic) of less than 0.2 µg/mL.

In turn, `CC1CCC(C(C)C)C(OCC(O)CNC(C)C)C1.Cl` (stereo not given) showed a solubility (kinetic) greater than 46.2 µg/mL. Compound `CCOC(=O)C(=CNc1cc(C)ccc1[N+](=O)[O-])C(=O)OCC` returned a kinetic solubility of less than 0.3 µg/mL. For `N#Cc1ccccc1OCC(O)CS(=O)(=O)c1ccccc1` (stereo not given) the value was greater than 47.6 µg/mL; for `Fc1ccc(-c2csc(-c3ccccn3)n2)cc1F`, less than 0.3 µg/mL; for `COc1ccc2c(c1)c(C(C)=O)c(C)n2Cc1ccco1`, 36.7 µg/mL (≈ 130 µM). The result for `CCCNC(=O)Nc1cccc(C(=O)OC)c1` reads greater than 35.4 µg/mL; that for `COP(=O)(OC)/C(C=O)=N/Nc1ccc([N+](=O)[O-])cc1`, greater than 45.2 µg/mL; that for `Cc1cc(C)cc(NC(=O)CS(=O)(=O)c2ccccc2)c1`, 44.2 µg/mL (≈ 146 µM).

`COc1ccc(C/C(N)=N/OC(=O)c2ccc(Cl)cc2)cc1`: the kinetic solubility was 0.6 µg/mL (≈ 1.88 µM). For `Cc1noc(C)c1CSCC(=O)Nc1cccc(C(F)(F)F)c1` the value was greater than 51.7 µg/mL; for `CC1CCCCC1NC(=O)c1ccc(-n2cncn2)cc1` (stereo not given), greater than 42.7 µg/mL. For `CC(C)NC(=S)N1CCCN(c2ncccc2[N+](=O)[O-])CC1` the value was greater than 48.5 µg/mL; for `CCOc1ccc(-n2cc(-c3ccccc3)c3c(=S)nc[nH]c32)cc1`, 0.3 µg/mL (≈ 0.863 µM). The result for `Cc1cnc(C(=O)OCC(=O)c2cc(C)n(C)c2C)cn1` reads greater than 43.1 µg/mL; that for `CC(C)N(Cc1ccccc1)C(=O)COC(=O)C1CCCCC1`, 46.6 µg/mL (≈ 147 µM); that for `CC(=O)Nc1ccc(C(=O)NC2CCSc3ccccc32)cc1` (stereo not given), 16.6 µg/mL (≈ 50.9 µM). Consider `O=S(=O)(NCCN1CCCC1)c1ccc(Cl)cc1`, for which the solubility (kinetic) turned out to be 40.8 µg/mL (≈ 141 µM). `O=C(NCCCSc1ccccc1)c1ccc(=O)[nH]c1` showed a solubility (kinetic) greater than 43.3 µg/mL. The result for `O=C(CCC(=O)c1cccs1)NCc1ccncc1` reads greater than 41.2 µg/mL; that for `N#Cc1ccsc1NC(=O)c1cccc([N+](=O)[O-])c1`, 4.2 µg/mL (≈ 15.4 µM). For `O=C(O/N=C1\CCS(=O)(=O)c2sccc21)c1ccc(F)cc1` the value was 1.2 µg/mL (≈ 3.54 µM); for `Cc1oncc1C(=O)Nc1ccc2ccccc2c1`, 9.8 µg/mL (≈ 38.8 µM); for `O=C(O)CNS(=O)(=O)c1ccc2c3c(cccc13)C(=O)N2`, greater than 45.9 µg/mL. For `O=C(O)c1ccc(CNC(=O)c2ccc3c(c2)OCCO3)cc1` the value was greater than 47 µg/mL. Regarding `CC(=O)Nc1ccc(S(=O)(=O)NCCN2CCNC2=O)cc1Cl`, the solubility (kinetic) was greater than 54.1 µg/mL. The result for `Cc1cnc(NC(=O)C2CC(=O)N(c3ccc4c(c3)OCCO4)C2)s1` (stereo not given) reads 20.2 µg/mL (≈ 56.2 µM); that for `Cc1ccc(NC(=O)CC2NCCN(Cc3ccccc3)C2=O)cc1` (stereo not given), 43.6 µg/mL (≈ 129 µM); that for `Cc1coc(C)c1C(=O)Nc1ccc2ccccc2c1`, 2.5 µg/mL (≈ 9.42 µM). Consider `Oc1cncc(Cc2ccccc2)c1`, for which the solubility (kinetic) is greater than 27.8 µg/mL.

As to `CCCCOc1ccc(-c2c(C#N)c(N)[nH]c(=S)c2C#N)cc1`, the kinetic solubility is 35.6 µg/mL (≈ 110 µM).

The compound `CN1CCN(CCCNC(=S)Nc2ccc(F)c(Cl)c2)CC1` came in with a kinetic solubility of 43 µg/mL (≈ 125 µM). The result for `Nc1ccc(-c2nc3ccccc3s2)cn1` reads 17.7 µg/mL (≈ 77.9 µM); that for `O=C(CCSc1nc2ccccc2o1)Nc1ccccc1`, 4.2 µg/mL (≈ 14.1 µM); that for `COc1ccc(O)c(/C=N/c2nc3ccccc3n2C)c1`, 15 µg/mL (≈ 53.3 µM).

Take `CCOCCOC(=O)NCCCCCCNC(=O)OCCOCC`: the solubility (kinetic) was 38.2 µg/mL (≈ 110 µM).

For `CCc1ccccc1NC(=S)N(CCN(C)C)Cc1cccs1`, the solubility (kinetic) is 45.6 µg/mL (≈ 131 µM).

In turn, `CC(C)(C)N1CSC(=S)N(Cc2ccccc2)C1` came in with a kinetic solubility of 16.4 µg/mL (≈ 58.5 µM). The result for `CSc1ccc(-c2nc(CN(C)C3CCOC3)c(C)o2)cc1` (stereo not given) reads 47.1 µg/mL (≈ 148 µM); that for `N#Cc1ccccc1OCC(=O)NC1CCCCC1`, greater than 38.7 µg/mL; that for `CN(C)c1c(F)cc(C(=O)NCc2ccccc2)cc1F`, 36 µg/mL (≈ 124 µM). The result for `O=C(CSc1nc2ccccc2s1)Nc1ccc(C(=O)O)cc1` reads greater than 51.7 µg/mL; that for `CCc1ccc(NC(=O)CCc2ccc(CC)o2)cc1`, 4 µg/mL (≈ 14.7 µM). With `COC(=O)C1CCN(C(=O)c2ccc3nccnc3c2)CC1`, the solubility (kinetic) was greater than 44.9 µg/mL. For `O=C(NN=C1CCCCCC1)c1ccncc1` the value was greater than 34.7 µg/mL. For `CN(C)S(=O)(=O)c1ccc(Cl)c(C(=O)OCC(=O)c2ccco2)c1` the value was greater than 55.8 µg/mL. For `Cc1cccc(C(=O)N2CCCC(c3nc(-c4ccc(F)cc4)no3)C2)c1` (stereo not given) the value was 12.4 µg/mL (≈ 33.9 µM); for `CCOC(=O)c1c(NC(=O)NC(C)(C)C)sc2c1CCN(C)C2`, 14.9 µg/mL (≈ 43.9 µM); for `CC(C)=CC(=O)OCc1cc([N+](=O)[O-])cc2c1OCOC2`, 3.3 µg/mL (≈ 11.3 µM). In turn, `O=C(NCc1cccs1)C1CC(c2ccc(Cl)cc2)=NO1` (stereo not given) registered a kinetic solubility of 1.3 µg/mL (≈ 4.05 µM). For `O=C(NC1CN2CCC1CC2)c1cccc(Cl)c1` (stereo not given) the value was greater than 39.7 µg/mL; for `O=C(COC(=O)c1ccc2c(c1)OCCO2)NCCc1ccc(F)cc1`, 5.3 µg/mL (≈ 14.7 µM); for `COC(=O)c1ccc(NCC(=O)Nc2cc(C)cc(C)c2)cc1`, 5.4 µg/mL (≈ 17.3 µM).

As for `C=CCc1ccccc1Oc1cc(F)nc(N)n1`, the solubility (kinetic) came to 27.7 µg/mL (≈ 113 µM). Compound `COC(CSc1ncnc2c1oc1nc3c(cc12)COC(C)(C)C3)OC` returned a solubility (kinetic) of 54.6 µg/mL (≈ 145 µM).

Regarding `Cc1ccc(N2C(=O)N(CC(=O)Nc3cc(C)cc(C)c3)C(=O)C2C)cc1` (stereo not given), the kinetic solubility was found to be 7.5 µg/mL (≈ 20.5 µM).

With `CCOc1ccccc1CN1C(=O)C2(OCCO2)c2ccccc21`, the kinetic solubility is 5.2 µg/mL (≈ 16 µM). Take `CCn1c(SCC(=O)O)nc2ccccc21`: the solubility (kinetic) is greater than 35.4 µg/mL.

In turn, `Cc1ccc(OC(=O)CCC(=O)Nc2ccc(C(N)=O)cc2)cc1` returned a solubility (kinetic) greater than 49 µg/mL. The result for `Cn1cnnc1SCC(=O)NC1CCCc2ccccc21` (stereo not given) reads greater than 45.4 µg/mL. For `CCc1ccccc1NC(=O)C1CCN(S(C)(=O)=O)CC1` the value was greater than 46.6 µg/mL; for `O=C(COC(=O)COc1ccc(Cl)cc1Br)NC1CC1`, greater than 54.4 µg/mL; for `C=CCOc1ccc(/C=C2\SC(=Nc3cccnc3)NC2=O)cc1`, 0.7 µg/mL (≈ 2.07 µM). For `NC(=O)c1oc2ccccc2c1NC(=O)Cc1ccccc1` the value was 43.7 µg/mL (≈ 148 µM); for `CCCOc1ccc(S(=O)(=O)N2CCOCC2)cc1[N+](=O)[O-]`, greater than 49.6 µg/mL; for `O=C(CN1CCOCC1)Nc1nc(-c2ccc(Cl)cc2)cs1`, greater than 50.7 µg/mL.

Turning to `O=C(Nc1ccc(F)cc1)N1CCCN(c2ccc(C(F)(F)F)cn2)CC1`, the kinetic solubility was 2.2 µg/mL (≈ 5.75 µM). The result for `Cc1cc(-c2ccccc2)nc(N(C)C)c1S(C)(=O)=O` reads 25 µg/mL (≈ 86.1 µM).

As for `COc1cc(C(=O)Nc2cccc(NC(=O)c3cccs3)c2)cc(OC)c1OC`, the solubility (kinetic) turned out to be 13.5 µg/mL (≈ 32.7 µM). For `C/C(=N\NC(=O)c1ccn(C)n1)c1ccco1` the value was greater than 34.8 µg/mL; for `O=C(CN1CCCc2ccccc21)Nc1ccccc1[N+](=O)[O-]`, 0.5 µg/mL (≈ 1.61 µM); for `COCCNC(=O)c1cc2c(=O)[nH]c3ccccc3c2s1`, 3.2 µg/mL (≈ 10.6 µM).

`Cc1cc(NC(=O)COc2ccc(F)c(Cl)c2)no1` had a kinetic solubility of 4.8 µg/mL (≈ 16.9 µM).

For orientation: solubility (kinetic) means the concentration staying in solution when a stock, usually in DMSO, is diluted into the medium.
